This experiment has as its target Dual specificity protein phosphatase 1 (Homo sapiens) (UniProt P28562). Nature of the experiment: MKP-1 phosphatase inhibitors, repeat potency, dose response, biochemical, reproducibility testing, probe assessment (AID 563). To be noted: recombinant MKP-1 phosphatase, fluorescence intensity.

The term IC50 denotes the point on the concentration scale where inhibition reaches its midpoint.

Structures are written as SMILES. Active and inactive are the calls of the source. The rule behind the calls is not given here. Bounds are passed on as bounds.

Dual specificity protein phosphatase 1 (Homo sapiens), sequence (P28562 whole entry, looked up): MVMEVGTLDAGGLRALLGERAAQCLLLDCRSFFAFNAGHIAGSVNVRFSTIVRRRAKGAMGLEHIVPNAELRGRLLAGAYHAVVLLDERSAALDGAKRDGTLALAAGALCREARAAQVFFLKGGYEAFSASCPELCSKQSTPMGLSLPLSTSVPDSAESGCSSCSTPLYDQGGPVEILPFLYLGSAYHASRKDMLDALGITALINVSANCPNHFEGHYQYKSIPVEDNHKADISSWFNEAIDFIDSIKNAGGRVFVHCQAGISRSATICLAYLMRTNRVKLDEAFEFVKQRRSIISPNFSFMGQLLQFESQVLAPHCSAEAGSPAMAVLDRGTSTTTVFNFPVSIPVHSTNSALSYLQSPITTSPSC

`CC(C)Sc1nc2sc3c(c2c2nnc(SCC(=O)NCc4ccco4)n12)CCCC3`: the IC50 was 22.8 µM.

Regarding `Cc1cccc(N2CCN(C(=O)Cc3c(C(=O)O)[nH]c4ccc(Cl)cc34)CC2)c1C`, the IC50 was 46.9 µM.

Take `CCOC(=O)c1ccc2c(c1)C1C=CCC1C(C(=O)O)N2` (stereo not drawn): the IC50 is 32.8 µM.

Regarding `Cc1ccc(-c2csc(NC(=O)c3ccno3)n2)cc1`, the concentration for half-maximal inhibition (IC50) is 49.7 µM.

Regarding `Cc1ccc(C)n1-c1cccc(C(=O)O)c1`, the half-maximal inhibitory concentration (IC50) was 17.1 µM.

Regarding `Cc1nc2c(C(=O)NCCC3=CCCCC3)c[nH]n2c(=O)c1Cl`, the IC50 was 49.8 µM.

Take `CCCCCNC(=O)c1ccc2c(=O)[nH]c3c(C(=O)NCC4CCCO4)sc(=S)n3c2c1` (stereo not drawn): the IC50 is 37 µM.

In the case of `O=C1C(C2=C(O)c3ccccc3C2=O)=Nc2ccccc21`, the IC50 was > 50 µM (inactive).

These data come from PubChem BioAssay AID563 (University of Pittsburgh Molecular Library Screening Center, 2006).
